Results published in patent publication US20080064034A1, “Multi-Cellular Test Systems” (FRAUNHOFER-GESELLSCHAFT ZUR FÖRDERUNG DER ANGEWAND, priority 2004, published 2008).

System: organoid bodies
Experiment: Western blot of the liver protein α-fetoprotein in homogenates of organoid bodies incubated with HGF
Format: cell-based
Details: 40 ng/ml HGF
Method: In this example organoid bodies were exposed for a time period of 1 to 2 days to different micromolar concentrations of puromycin, an active substance that inhibits translation. Then, the size of the treated organoid bodies was compared with those of an untreated control (see comparative micrograph in FIG. 5A). In a second detection method the organoids were taken up in 10 ml lysis buffer containing 7.5 ml PBS, 2.5 ml NP-40 and 1 mM PEFA block, stored overnight in a refrigerator at 4° C. and then homogenized in minihomogenizers for Eppendorf tubes. The homogenate was centrifuged, the supernatant removed and resolved electrophoretically according to standard methods and the gel subjected to a Western immunoblot. […] The first four bands are produced by the different active amounts of puromycin, the last two show the amount of vigilin in the untreated organoids; the same amount of total protein was always applied per track.
The organoid bodies were incubated with 40 ng/ml HGF (hepatocyte growth factor) or without HFG for 7, 11 14 and 17 days. Then, the organoid bodies were homogenized as described in example 7 and subjected to a Western blot assay. The production of the liver protein α-fetoprotein was examined (FIG. 7).

Q: For “HGF: hepatocyte growth factor, a differentiation factor for increased formation of cardiac and liver cells”, which “production of the liver protein α-fetoprotein” value (after 7 and 11 days of incubation) is on record?
A: distinct synthesis of the fetoprotein can be observed

Q: And the “production of the liver protein α-fetoprotein” value (longer exposure time (14 and 17 days))?
A: tends to inhibit the production again
